# Test system: mouse bone marrow stromal cell OP9
# Assay: Oil-red O staining of fat accumulation in differentiated OP9 cells
# Format: cell-based
# Conditions: 10 μg/mL, incubated 7-10 days, O.D. 510 nm
# Description: First, 8×10^4 mouse bone marrow stromal cell OP9 (ATCC® CRL-2749™) was seeded with 500 μL of pre-adipocyte expansion medium (supplemented with 90% minimum essential medium alpha medium (Gibco), […] (Gibco) and 1% penicillin/streptomycin (Gibco)) in a 24-well plate, and incubated at 37° C. for 7 days. Fresh differentiation medium (supplemented with 90% minimum essential medium alpha medium, 20% fetal bovine serum, and 1% penicillin/streptomycin) was replaced every three days. After 7 days, lipid droplet formation was observed using microscopy (ZEISS) to make sure the cells are fully differentiated.
# Thereafter, five groups of OP9 cells (i.e. an experimental group, three comparative groups (comparative group 1 to comparative group 3) and a control group) were prepared. […]
# The oil droplet was dissolved using 100% isopropanol, and the plate was put on shaker and incubation for 10 min. A volume of 100 μL was taken to 96-well plate for measuring the O.D ratio (510 nm) with the ELISA reader (BioTek).
# The statistical significance of the differences between each group was determined by Student's t-test in Microsoft Excel. […]
smiles,measurement,value
COc1ccc(-c2cc(=O)c3c(OC)cc(OC)c(OC)c3o2)cc1 [tetramethylisoscutellarein],"oil red relative percentage, lower than the control group",28%

# Source: patent publication US11622988B2, “Method for reducing fat accumulation by using tetramethylisoscutellarein” (TCI CO., LTD., priority 2018, dated 2023)
